These results are taken from PubChem BioAssay (NCI).

Experiment in all cases: NCI tumour cell line growth inhibition, 48 h
The test system of test [1] is COLO 205 colon.
Test [2] concerns KM12 colon.
Test [3] relates to MOLT-4 leukemia.
Test [4] relates to EKVX NSCLC.
Test [5] concerns OVCAR-5 ovarian.
In test [6] the test system is RXF 393 renal.
Test [7] deals with M14 melanoma.
Test [8] deals with HT29 colon.
Test [9] concerns OVCAR-3 ovarian.
Test [10] has as its system T-47D breast.

Several values for one entry are separate records, joined by “and”; a condition that tells them apart may be missing. Equal values may be shown once.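 In this assay, cells in 96-well plates receive the compound at five concentrations for 48 hours. Endpoints are linearly interpolated between the surrounding concentrations. GI50: concentration for 50% inhibition of growth. TGI: total growth inhibition.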

With `CC(=C(c1ccc(OCCN2CCCCC2)cc1)c1ccc(OCCN2CCCCC2)cc1)c1ccc(Cl)cc1`, the GI50 in test [1] was 460 nM; in test [2], 454 nM; in [3], 449 nM; in [4] it was 433 nM; in test [5] it was 417 nM; in test [6], 375 nM. The GI50 in test [7] was 438 nM; in test [8], 350 nM; in [9], 415 nM; in test [10], 430 nM. In addition, the TGI in test [1] turned out to be 921 nM; in test [2] it was 887 nM; in [3], 982 nM; in [4] it was 857 nM; in [5] it was 771 nM; in test [6], 743 nM. The TGI was found to be 837 nM in test [7], 779 nM in [8], 783 nM in test [9] and 1040 nM in test [10].

As for `CCC(C)SC1SCC2C(=O)N(C)C3(CC3C)C(=O)OCC(NC(=O)c3nc4ccccc4cc3O)C(=O)NC(C)C(=O)N(C)C1C(=O)N(C)C1(CC1C)C(=O)OCC(NC(=O)c1nc3ccccc3cc1O)C(=O)NC(C)C(=O)N2C` (centres undefined), the TGI is 0.194 nM in [1]; 0.397 nM in test [2]; 68.7 nM in test [3]; 5.38 nM in test [4]; 2.56 nM in [5]; 0.154 nM in [6]. For the same molecule, the TGI is 0.846 nM and < 25 nM in test [7]; 7.88 nM in test [8]; 7.68 nM in [9]; 5.14 nM in [10]. Besides, the GI50 was 0.0524 nM in test [2], 0.0148 nM in [8] and 0.162 nM in [9].

Turning to `NCCNCCNCCN`, the GI50 in test [1], in [2], in test [3], in [4], in test [5] and in [6] was more than 100000 nM in each case. In addition, the GI50 in test [7], in test [8], in [9] and in [10] was more than 100000 nM each time. For the same molecule, the TGI in test [1], in [2], in test [3], in test [4], in test [5] and in test [6] was more than 100000 nM each time. For the same molecule, the TGI in test [7], in [8], in test [9] and in [10] was more than 100000 nM throughout.

With `C=C1C(=O)O[C@H]2[C@H]1CC/C(CNC(=O)c1cc3ccccc3[nH]1)=C\CC[C@@]1(C)O[C@@H]21`, the GI50 in test [1] is 1160 nM; in [2], 2080 nM; in test [3] it was 1600 nM; in test [4] it was 2110 nM; in test [5], 2370 nM; in [6], 1010 nM. Moreover, the GI50 in test [7] was 1120 nM; in test [8], 1110 nM; in test [9] it was 504 nM; in [10], 1650 nM. In addition, the TGI was 2600 nM in test [1]; 5000 nM in test [2]; 4550 nM in test [3]; 8040 nM in [4]; 6260 nM in [5]; 2520 nM in [6]. The TGI amounted to 2810 nM in [7], 3090 nM in test [8], 1690 nM in test [9] and 4800 nM in test [10].

For the molecule `O=C(Nc1nn2c(-c3cc(C(F)(F)F)cc(C(F)(F)F)c3)nnc2s1)C1CCCC1`, the GI50 is 1490 nM in test [1]; 575 nM in test [2]; 643 nM in test [3]; 366 nM in [4]; 2630 nM in [5]; 1620 nM in test [6]. Moreover, the GI50 in test [7] was 957 nM; in [8] it was 1110 nM; in test [9], 441 nM; in test [10], 375 nM. Besides, the TGI in test [1] was 2860 nM; in test [2], more than 46200 nM; in test [3], 4530 nM; in [4] it was more than 25200 nM; in test [5] it was more than 100000 nM; in test [6], more than 33900 nM. Moreover, the TGI in [7] was more than 100000 nM; in test [8] it was more than 32500 nM; in [9], more than 37800 nM; in test [10], more than 24600 nM.

Turning to `Nc1nc2[nH]cc(CCc3ccc(C(=O)N[C@@H](CCC(=O)O)C(=O)O)cc3)c2c(=O)[nH]1`, the GI50 in test [1] was more than 34600 nM; in test [3] it was 530 nM; in test [7] it was 158 nM; in test [8], 35000 nM. The TGI in test [1], in test [2], in test [3], in [4], in test [5] and in [6] was more than 100000 nM throughout. In addition, the TGI in test [7], in test [8], in test [9] and in test [10] was more than 100000 nM throughout.

For `COC1=CC(=O)C(C2(OC(C)C)OC(=O)C(Cl)=C2Cl)=CC1=O` (centres undefined), the TGI in test [1], in test [2], in [4], in test [5], in test [6] and in test [7] was more than 100000 nM throughout. For the same molecule, the TGI in test [8], in test [9] and in test [10] was more than 100000 nM each time.

Consider `Cc1cc2c(cc1C)[n+](=O)c(C(=O)c1ccccc1)c(C(F)F)n2[O-]`, for which the GI50 in test [1] is 9830 nM; in [2] it was 20500 nM; in [3], 8020 nM; in test [4] it was 9430 nM; in test [5] it was 36400 nM; in test [7], 16900 nM. Also, the figures for the GI50 in test [8], in test [9] and in test [10] were 17200 nM, 18400 nM and 30300 nM, respectively. Further, the TGI in test [1] is 35500 nM; in test [2], more than 100000 nM; in test [3], 43100 nM; in test [4], 44600 nM; in test [5], more than 100000 nM; in [7] it was more than 100000 nM. In addition, the TGI in [8], in test [9] and in test [10] was more than 100000 nM each time.
